# Values of other authors as cited in US20100256576A1, “Disinfectant Compositions, Methods and Systems” (TYCO HEALTHCARE GROUP LP, priority 2009, published 2010).
# Details: up to 3000 mg infused over 3 hours, daily, humans with hypercalcemia
structure (smiles),measurement,value
"O=C([O-])CN(CCN(CC(=O)[O-])CC(=O)O)CC(=O)O.[Na+].[Na+] [EDTA, Disodium EDTA]",tolerability of infused dose,well tolerated
